Earlier results in patent publication US12109298B2, “Improving the fastness to washing of pigment-containing dyes by using an oxidative pretreatment agent” (Henkel AG & Co. KGaA, priority 2020, dated 2024).
Where two headings read alike, the source gives them in different places.

Columns and labels:
[1] = 25° C.
[2] = 5% solution in water

Row | Structure (SMILES) | solubility in water [1] | further results
1 | O=S(=O)([O-])c1ccc(N=Nc2c(O)ccc3ccccc23)cc1.[Na+] [Acid Orange 7, sodium salt of 4-[(2-hydroxy-1-naphthyl)azo]benzene sulfonate] | more than 7 g/L | 
2 | Nc1cc(S(=O)(=O)[O-])cc2cc(S(=O)(=O)[O-])c(N=Nc3ccccc3)c(O)c12.[Na+].[Na+] [Acid Red 33, diantrium salt of 5-amino-4-hydroxy-3-(phenylazo)-naphthalene-2,7-disulphonate] | 2500 µg/mL | 
3 | O=C([O-])c1c(Cl)c(Cl)c(Cl)c(Cl)c1-c1c2c(Br)cc(=O)c(Br)c-2oc2c(Br)c(O)cc(Br)c12.O=C([O-])c1c(Cl)c(Cl)c(Cl)c(Cl)c1-c1c2c(Br)cc(=O)c(Br)c-2oc2c(Br)c(O)cc(Br)c12.[Na+].[Na+] [Acid Red 92, disodium salt of 3,4,5,6-tetrachloro-2-(1,4,5,8-tetrabromo-6-hydroxy-3-oxoxanthen-9-yl)benzoic acid] | greater than 10 g/L | 
4 | CCN(Cc1cccc(S(=O)(=O)[O-])c1)c1ccc(C(=C2C=CC(=[N+](CC)Cc3cccc(S(=O)(=O)[O-])c3)C=C2)c2ccccc2S(=O)(=O)[O-])cc1.[Na+].[Na+] [Acid Blue 9] | more than 20 wt. % | 
5 | O=C([O-])C1=NN(c2ccc(S(=O)(=O)[O-])cc2)C(=O)C1N=Nc1ccc(S(=O)(=O)[O-])cc1.[Na+].[Na+].[Na+] (stereo not drawn) [Acid Yellow 23, trisodium salt of 4,5-dihydro-5-oxo-1-(4-sulfophenyl)-4-((4-sulfophenyl)azo)-1H-pyrazole-3-carboxylic acid] |  | solubility in water ([1]; in words): readily soluble in water
6 | O=P([O-])(O)O.[K+] [Potassium dihydrogen phosphate] |  | pH value [2]: 4.4
